Test results reported in the NIST ThermoML archive (doi:10.1021/je034017j).

Key:
[1] = xn = mol fraction of the nth substance listed; conditions: 101 kPa, Liquid
[2] = Liquid; for mass density: 101 kPa; for viscosity: 101.33 kPa

CCCCCCCC [octane] + CCCCCCO
[1], x1 = 1
Conditions	kinematic viscosity [m2/s]	mass density [kg/m3]
293.15 K	7.71e-07	702.54
303.15 K	6.96e-07	694.35
313.15 K	6.27e-07	686.12

CCCCCCO [hexan-1-ol] + CCCCC(=O)OC
[1], Capillary tube (Ostwald / Ubbelohde) method, x2 = 0
Conditions	kinematic viscosity [m2/s]
293.15 K	6.609e-06
303.15 K	4.885e-06
313.15 K	3.688e-06

[1], x2 = 0
Conditions	mass density [kg/m3]
293.15 K	818.84
303.15 K	811.56
313.15 K	804.28

CCCCCCO [hexan-1-ol]
[2]
Conditions	mass density [kg/m3]	viscosity [mPa·s]
293.15 K	818.84	5.412
298.15 K	–	4.596
303.15 K	811.56	3.964
313.15 K	804.28	2.966

CCCCCCO [hexan-1-ol] + CCCCCCC(=O)OC
[1], x2 = 0
Conditions	kinematic viscosity [m2/s]	mass density [kg/m3]
293.15 K	6.61e-06	818.84
303.15 K	4.88e-06	811.56
313.15 K	3.69e-06	804.28

CCCCC(=O)OC [methyl pentanoate]
[2]
Conditions	mass density [kg/m3]	viscosity [mPa·s]
283.15 K	–	0.816
293.15 K	889.75	0.712
298.15 K	–	0.661
303.15 K	879.51	0.623
313.15 K	869.32	0.551

CCCCCCC(=O)OC [methyl heptanoate]
[2]
Conditions	mass density [kg/m3]	viscosity [mPa·s]
283.15 K	–	1.32
293.15 K	879.96	1.112
298.15 K	–	1.023
303.15 K	870.73	0.95
313.15 K	861.65	0.823

CCCCCCCC [octane]
[2]
Conditions	mass density [kg/m3]	viscosity [mPa·s]
283.15 K	–	0.614
293.15 K	702.54	0.542
298.15 K	–	0.508
303.15 K	694.35	0.483
313.15 K	686.12	0.43

CCCCCCC(=O)OC [methyl heptanoate] + CCCCCCO
[1]
Conditions	kinematic viscosity [m2/s]	mass density [kg/m3]
293.15 K, x1 = 0.0702	5.11e-06	824.02
293.15 K, x1 = 0.1168	4.4e-06	827.4
293.15 K, x1 = 0.189	3.59e-06	832.46
293.15 K, x1 = 0.3018	2.76e-06	840.04
293.15 K, x1 = 0.3966	2.31e-06	846.13
293.15 K, x1 = 0.4898	1.99e-06	851.87
293.15 K, x1 = 0.594	1.74e-06	858.04
293.15 K, x1 = 0.7085	1.52e-06	864.51
293.15 K, x1 = 0.7917	1.42e-06	869.04
293.15 K, x1 = 0.8937	1.32e-06	874.45
293.15 K, x1 = 0.937	1.29e-06	876.69
293.15 K, x1 = 1	1.26e-06	879.96
303.15 K, x1 = 0.0753	3.81e-06	816.9
303.15 K, x1 = 0.12	3.35e-06	819.99
303.15 K, x1 = 0.1919	2.79e-06	824.84
303.15 K, x1 = 0.2963	2.24e-06	831.61
303.15 K, x1 = 0.4003	1.87e-06	838.05
303.15 K, x1 = 0.4934	1.64e-06	843.6
303.15 K, x1 = 0.5979	1.45e-06	849.6
303.15 K, x1 = 0.6849	1.32e-06	854.38
303.15 K, x1 = 0.8004	1.2e-06	860.53
303.15 K, x1 = 0.8676	1.15e-06	864
303.15 K, x1 = 0.9415	1.11e-06	867.77
303.15 K, x1 = 1	1.09e-06	870.73
313.15 K, x1 = 0.064	3.05e-06	808.63
313.15 K, x1 = 0.1198	2.62e-06	812.36
313.15 K, x1 = 0.1968	2.21e-06	817.35
313.15 K, x1 = 0.2986	1.83e-06	823.7
313.15 K, x1 = 0.3995	1.56e-06	829.76
313.15 K, x1 = 0.5299	1.32e-06	837.23
313.15 K, x1 = 0.6009	1.22e-06	841.13
313.15 K, x1 = 0.6925	1.12e-06	846.03
313.15 K, x1 = 0.8022	1.04e-06	851.72
313.15 K, x1 = 0.872	9.99e-07	855.24
313.15 K, x1 = 0.9368	9.78e-07	858.5
313.15 K, x1 = 1	9.55e-07	861.65
